In paper PMC8667898, “Topo II inhibition and DNA intercalation by new phthalazine-based derivatives as potent anticancer agents: design, synthesis, anti-proliferative, docking, and in vivo studies” (Journal of Enzyme Inhibition and Medicinal Chemistry, 2021):

What was measured:
[1] = Hematological and biochemical blood assays in SEC-bearing mice; type: in vivo, Swiss albino mice; details: 5 mg/kg BW, Mean ± SEM (n = 7)
Method: At the end of the experiment, animals from different groups were sacrificed, and blood samples were collected for hematological parameters, including Hb, RBC’s, and WBC’s levels, and serum for determination of liver enzymes ALT, AST levels, and proteins.
(§1) The experimental animals were randomly divided into four groups. Group 1 served as the normal saline control (5 ml/kg B.Wt., I.P.). Group 2 served as the SEC control (1 × 10^6 cells/mouse). Group 3 served as the compound-treated group (5 mg/kg B.Wt., I.P.). […] Bodyweight and survival were recorded daily until the 24th day in both treated and control groups. At the end of the experiment, the blood of each group was collected under light anaesthesia to the estimate of hematological and biochemical assays. The anaesthetised animals were then sacrificed for evaluation of the antitumor activity and histopathological examination.
At the end of the experiment, animals from different groups were sacrificed, and blood samples were collected for hematological parameters including, Hb, RBC’s, and WBC’s levels, and serum for determination of liver enzymes ALT, AST levels, and proteins. Complete blood count (CBC) was investigated using the Abbott CELL-DYN®1800 automated haematology analyser (USA) using ready-made kits (Abbott Laboratories, Abbott Park, IL, USA). Activities of aspartate aminotransferase (AST) and alanine aminotransferase (ALT) were evaluated using commercial kits (ELITech clinical systems, France). Serum albumin level was determined by kit purchased from STANBIO Company (USA). Protein content was determined by colorimetric method using ready-made kits produced by Instrumentation Laboratory SpA, Inova diagnostics, Milano, Italy.

Calf thymus DNA = experiment: DNA intercalation assay (DNA/methyl green colorimetric assay); type: binding; details: three independent experiments
Method: (§2) The data represented the mean of three independent experiments in triplicate and were expressed as means ± SD. […]
4.2.2. DNA intercalation assay (DNA/methyl green colorimetric assay)
Affinity of some compounds for DNA-binding was examined in vitro using DNA/methyl green assay using doxorubicin as a positive control. In this test, a mixture of methyl green (20 mg) and Calf thymus DNA (10 mg) (Sigma– Aldrich) were suspended in 0.05 M TrisHCl buffer (100 mL, pH 7.5) containing 7.5 mM MgSO4. This mixture was stirred continuously for 24 h at 37 °C. Then, ethanolic solution of the test compounds was pitted into the wells of a 96-well microtiter tray at a concentration of 10, 100 and 1000 µM. The excess solvent was removed from each well under vacuum, with subsequent addition of 200 µL of the DNA/methyl green solution. The test samples were incubated for 24 h in dark at ambient temperature. After that, absorbance of each sample was determined at 642.5–645 nm. In this test, the methyl green dye reversibly binds to DNA to form persistent colored complex of DNA/methyl green. This color still stables at neutral pH. When the DNA intercalators were added, the methyl green was displaced from DNA with addition of H2O molecule to the dye resulting in formation of the colorless carbinol leading to a decrease in spectrophotometric absorbance. ΔA value (the difference between DNA/methyl green complex and free cabinol) provides the simplest means for detecting the DNA-binding affinity and relative binding strength. IC50′s were determined by linear regression of data plotted on a semi -log scale and the data were compared with doxorubicin as standard DNA intercalator . […]

[2] = system: HCT-116 cells (colorectal carcinoma); experiment: MTT anti-proliferative assay, HCT-116; type: cell-based, human; details: Homo sapiens, HCT-116, MTT, mean ± SD of three separate experiments; read-out: In vitro Cytotoxicity IC50 HCT-116
Method: Anti-proliferative activities of the target compounds were assessed via the standard MTT method[38–40] against three cancer cell lines, namely, hepatocellular carcinoma (HepG-2), colorectal carcinoma (HCT-116), and human breast adenocarcinoma (MCF-7). Doxorubicin was used in this test as a positive control.
Anti-proliferative activity of the synthesised compounds was estimated using the MTT assay protocol[8]^,[38–40] as shown in Supplementary data.
4.2.1. In vitro anti-proliferative activity against MCF-7, HepG-2 and HCT-116 The cells were cultured in RPMI-1640 medium supplemented with 10% fetal bovine serum (FBS), penicillin (100 unit /mL) and streptomycin sulphate (100µg/mL) at 37 °C in a 5% CO2 incubator.
Then, cells were dropped in 96-well plates at a density of 3-8 × 10^3 cells/well and incubated for two days in a 5% CO2 incubator at 37 °C. Then, the cells were treated with the synthesized compounds and the cell cultures were continued incubated for 24 h. However, Different concentrations of the compound under test (0.0, 5.0, 12.5, 25.0 and 50 mg/ml) were added to the cell monolayer. Then, (3-[4,5-dimethylthiazol-2-yl]- 2,5-diphenyltetrazolium bromide) MTT solution (20 µl, 5mg/mL) was added to each well and incubated for additional 4 h. The formed purple crystals of MTT-formazan were dissolved in 100 µl DMSO each well; the absorbance of each well was measured at 570 nm using a plate reader (EXL 800, USA). All of the compounds were tested three times. The relative cell viability in percentage was calculated. The results for IC50 values of the active compounds are […]
as §2
of the cells could survive. […]

[3] = Histopathological examination of liver tissues of SEC-bearing mice; type: in vivo, Swiss albino mice; details: H&E stain, ×200
Method: as §1
Specimens of liver-sacrificed mice were fixed in 10% saline formalin. The fixed liver specimens were dehydrated in ascending series of ethyl alcohol and embedded in paraffin. Sections at […] thicknesses were stained with haematoxylin and eosin and examined under the light microscope.

[4] = system: Solid Ehrlich Carcinoma (SEC); experiment: In vivo antitumor activity against Solid Ehrlich Carcinoma; design: species or system Swiss albino mice; details: SEC-bearing mice, 5 mg/kg BW I.P.
Method: To examine the in vivo anticancer activity of compound 9d, adult female Swiss albino mice (30 mice) inoculated with I.P. injection of Solid Ehrlich Carcinoma (SEC) tumour cell lines in a volume of 0.2 ml physiological saline contains 1 × 10^6 viable cells for 24 h.
These mice were randomly divided into four groups (7 mice/group). […] Bodyweight and survival were recorded daily until the 24th day in both treated and control groups. At the end of the experiment, the blood of each group was collected under light anaesthesia for the estimation of hematological and biochemical assays. The anaesthetised animals were then sacrificed to evaluate of the antitumor activity and to conduct hematological, biochemical, and histopathological assays, Figure 3.
Adult female Swiss albino mice purchased from Theodor Bilharzia Research Institute, Giza, Egypt, with an average bodyweight of (18–23) g were used. Mice were housed under constant conditions of 12 h light/dark cycle in a […], with free access to standard laboratory mice food and water. All procedures related to care and maintenance of the animals were performed according to the international guiding principles for animal research and approved by the Faculty of Science, Suez Canal University bioethics and animal ethics committee (Approval number REC-07–2021).
Solid Ehrlich carcinoma (SEC) was purchased from the National Cancer Institute (Cairo University, Egypt). The tumour cell line was proliferated in mice through serial intraperitoneal (I.P.) transplantation of a volume of 0.2 ml physiological saline contains 1 × 10^6 viable cells for 24 h. SEC cells were collected 7 days after I.P. implantation. The harvested cells were diluted with saline to obtain a concentration of 5 × 10^6 viable SEC cells/mL. A volume of 0.2 ml saline contains 1 × 10^6 SEC cells that were I.P. implanted into each normal mouse. SEC cells (1 × 10^6 tumour cells/mouse) were implanted subcutaneously into the right thigh of the hind limb.
as §1
It includes tumour volume, weight, and tumour inhibition ratio (TIR%). Time interval measurements of tumour volume using digital Vernier calliper (Tricle Brand, Shanghai, China). Measure tumour length and width using a clipper and then calculate tumour volume using formulations V = (L × W × W)/2, where V is tumour volume, W is tumour width, L is tumour length. While TIR% was calculated according to the following equation Tumor volume (Control)−Tumor volume (treated)/Tumor volume (control)× 100.

- Hb [1]: 7.82 ± 0.27 g/dL
- RBCs count [1]: 5.26 ± 0.38 ×10^6/µL
- Total Protein [1]: 6.73 ± 0.26 g/dL
- WBCs count [1]: 4.11 ± 0.57 ×10^3/µL
- IC50 (Calf thymus DNA): 31.3 ± 1.8 µM
SMILES: COc1cccc2c1C(=O)c1c(O)c3c(c(O)c1C2=O)C[C@@](O)(C(=O)CO)C[C@@H]3O[C@H]1C[C@H](N)[C@H](O)[C@H](C)O1 [Doxorubicin, reference compound]
- IC50 [2]: 9.62 ± 0.5 µM
- Histopathological finding in liver tissue [3]: tissue enhancement like normal group, but still, some hydropic degeneration, pyknosis (arrows) and karyolysis (arrowhead) were shown
- tumour volume [4]: 22 mm^3
- reduction of the increase in solid tumour mass ([4]; compared to SEC control): 59.8%
- solid tumour mass ([4]; SEC control 194 mg): 78 mg
